Test results taken from patent US20040138301A1, “Chemical uncouplers for the treatment of obesity” (priority 2002, published 2004).
Read-outs that look alike come from different tables or passages of the source.

Tested on: HEP-G2 cells
Test: cells
Details: for EC50 / Emax / EC (Emax): Homo sapiens; for EC50: HepG2, 3 h
Description: Assay (I): Glucose utilisation in a human hepatocytes cell line (HEP-G2 cells)
The assay measures indirectly the activity of the respiratory chain in HEP-G2 cells by using D-(3-^3H(N))-glucose. The ^3H-proton will first be released during the metabolism of glucose where it will be incorporated into water. The water is thereafter separated from the D-(3-^3H(N))-glucose by evaporation. Finally, the radioactivity in the water is determined using a Topcounter.
HEP-G2 cells obtained from ATCC (Maryland, USA), are cultured in assay medium (MEM medium) with the following addition 1× non-essential amino acids (M7145, 2 mM glutamine, 100 units/ml penicillin and streptomycin, 0.0075% sodium bicarbonate, 1 mM sodium pyrovate and 0.5% BSA (Bovin Serum Albumin, Sigma Missouri, USA)) at 37° C. and 5% CO2. All media are obtained by Gibco (Life Technologies, Maryland, USA) where not otherwise mentioned.
At day zero the cells are harvested using trypsin-EDTA and washed in assay medium using centrifugation. […] The cells are then incubated at 37° C. and 5% CO2 overnight.
The next day the compounds to be tested are diluted in DMSO (Sigma, Missouri, USA) to 100 times final concentration. They are then diluted to a final concentration in assay medium containing 10 μCi/ml D-(3-^3H(N))-glucose (PerkinElmer Life Sciences Inc., Boston, USA). The medium is removed from the cells and 200 μl of the compound dilutions are added in duplicates. The cells are then incubated for another 3 hours at 37° C. and 5% CO2. Finally the cells are lysed by adding 50 μl 10% TCA (trichloroacetic acid). 300 μl of sterile water is then added to the 24-wells that surrounds the StripPlate wells. The plate is sealed with Top-seal-tape (Packard, PerkinElmer Life Sciences Inc., Boston, USA) and the plate is incubated in a heating cupboard at 50° C. to equilibrium the radioactive water formed in the respiratory chain into the water in the 24-well plate by evaporate. The plates incubate for 8 hours where the heating cupboard is turned off. The top seal is removed when the samples have reached room temperature. One ml scintillation liquid (Packard Microscient, PerkinElmer Life Sciences Inc., Boston, USA) is added to all the samples and the radioactivity is determined using a Topcounter (Packard, PerkinElmer Life Sciences Inc., Boston, USA). Non-specific activity is determined by evaporating 200 μl of the dilution medium containing the D-(3-^3H(N))-glucose into 300 μl sterile water, and total radioactivity is determined by counting 5 μl assay medium with 10 μCi/ml D-(3-^3H(N))-glucose.
The cpm (counts per minute) representing the non-specific radioactivity in the D-(3-^3H(N))-glucose is subtracted from all incubated values. Then mean basal value (samples without any compound added) is subtracted from the values of all stimulated samples (samples added different concentrations of the different test compounds). All these calculations are done using GraphPad Prism 3.0 (GraphPad software, Inc.). The maximal stimulation caused by the test compounds is calculated in percentage of maximal stimulation caused by either DNP or FCCP.
When calculating the concentration-response curve the maximal glucose utilisation stimulated by FCCP or DNP (subtracted non-specific and basal values) is converted to 100% and all the other values are expressed in percentage of this value. Using these percentage values and the compound concentration a concentration-response curve is calculated using sigmoidal dose-response (variable slope) equation (all the calculations are done by GraphPad Prism 3.0 (GraphPad software, Inc.));
Y=Bottom+(Top−Bottom)/(1+10^((LogEC50-X)*slope))
X is the logarithm of the molar concentration of the test compound.
Y is the degree of stimulation caused by the compound measured as a percentage of the maximal stimulation achieved by use of FCCP or DNP.
The results achieved with these concentrations are used to determine the slope in this area using the following equation: […]

[1] = read-out: HEP-G2 EC50, HEP-G2 cells, glucose utilisation, 3 hours incubation
[2] = HepG2, read-out: HEP-G2 Emax (% of FCCP), HEP-G2 cells, maximal stimulation relative to FCCP
[3] = HepG2, read-out: HEP-G2 Emax (μM), HEP-G2 cells, concentration at which Emax is achieved (CEmax)
[4] = HepG2, read-out: HEP-G2 Emax (% of FCCP)
[5] = HepG2, read-out: HEP-G2 Emax (μM)

In the case of COc1ccc(O)c([N+](=O)[O-])c1 [Example 2, 4-Methoxy-2-Nitrophenol], the EC50 [1] is reported as 290 µM, the Emax [2] is reported as 35% and the EC (Emax) [3] is reported as 1000 µM.
With CC(=O)c1ccc(O)c([N+](=O)[O-])c1 [Example 3, 4-Hydroxy-3-Nitroacetophenone] the EC50 [1] was 270 µM, the Emax [2] was 75% and the EC (Emax) [3] was 1000 µM.
N#Cc1ccc(NC(=O)c2cc(C(F)(F)F)cc(C(F)(F)F)c2)cc1C(F)(F)F [Example 6, N-1-[4-Cyano-3-(Trifluoromethyl)Phenyl]-3,5-Di(Trifluoromethyl)Benzamide] was tested, and the EC50 (read-out: HEP-G2 EC50) was 1.6 µM, the Emax [4] was 95% and the EC (Emax) [5] was 10 µM. The “HEP-G2 Tox” value (concentration with sign of toxicity (significant drop in glucose utilisation)) was “Tox 0.1 mM”.
Molecule O=C(Nc1ccc([N+](=O)[O-])cc1Cl)c1ccc2ccccc2c1O [Example 8, 2′-Chloro-1-Hydroxy-4′-Nitro-2-Naphthanilide] has an EC50 (read-out: HEP-G2 EC50) of 12 µM, an Emax [4] of 80% and an EC (Emax) [5] of 100 µM.
With O=C(Nc1ccc(Br)cc1Cl)c1cc(Br)ccc1O [Example 9, N-(2-Chloro-4-Bromophenyl)-5-Bromosalicylanilide] the EC50 [1] was 2.3 µM, the Emax [2] was 100% and the EC (Emax) [3] was 10 µM.
For CC(C)(C)c1cc(/C=N/C(C#N)=C(\N)C#N)cc(C(C)(C)C)c1O [Example 17, 2-Amino-S-[(3,5-Di-Tert-Butyl-4-Hydroxybenzylidone)-Amino]-But-2-Enedinitrile], the EC50 [1] was 6 µM, the Emax [2] was 45% and the EC (Emax) [3] was 30 µM. The “HEP-G2 Tox” value (human, 3 h) was “Tox 0.1 mM”.
With CCc1cc(C#N)cc2c(C)c(C)[nH]c12 [Example 22, 2,3-Dimethyl-5-Cyano-7-Ethylindole] the EC50 [1] was 91 µM, the Emax [2] was 100% and the EC (Emax) [3] was 1000 µM.
Molecule N#Cc1c(-c2ccc(Cl)cc2)[nH]c(C(F)(F)F)c1Br [Example 23, 4-Bromo-2-(4-Chlorophenyl)-5-Trifluoromethyl-1H-Pyrrole-3-Carbonitrile] has an EC50 (read-out: HEP-G2 EC50) of 1.75 µM, an Emax [4] of 117% and an EC (Emax) [5] of 30 µM.
For N#Cc1cc(NC(=O)c2cccc(C(F)(F)F)c2)ccc1Sc1ccccc1 [Example 24, N-(3-Cyano-4-Phenylsulfanyl-Phenyl)-3-Trifluoromethyl-Benzamide], the EC50 [1] was 42 µM, the Emax [2] was 65% and the EC (Emax) [3] was 100 µM.
Cc1cc(C)c2[nH]cc(C=C(C#N)C#N)c2c1 [Example 28, 2-(5,7-Dimethyl-1H-Indol-3-Ylmethylene)-Malononitrile] was tested, and the EC50 [1] was 35.5 µM, the Emax [2] was 35% and the EC (Emax) [3] was 300 µM.
In the case of N#CC(C#N)=Cc1c[nH]c2ccc(Br)cc12 [Example 29, 2-(5-Bromo-1H-Indol-3-Ylmethylene)-Malononitrile], the EC50 [1] is reported as 13 µM, the Emax [2] is reported as 65% and the EC (Emax) [3] is reported as 30 µM.
In the case of Cc1ccc2[nH]cc(C=C(C#N)C#N)c2c1 [Example 31, 2-((5-Methyl-1H-Indol-3-Yl)Methylene)Malononitrile], the EC50 [1] is reported as ≥ 300 µM and the Emax [2] is reported as 0%.
CC(C)c1cccc(C(=O)Nc2ccc([N+](=O)[O-])cc2Cl)c1O [Example 38, N-(2-Chloro-4-Nitro-Phenyl)-2-Hydroxy-3-Isopropyl-Benzamide] gave an EC50 [1] of 3.35 µM, an Emax [2] of 105% and an EC (Emax) [3] of 30 µM.
In the case of Cc1ccc(C(C)C)c(O)c1C(=O)Nc1ccc([N+](=O)[O-])cc1Cl [Example 39, N-(2-Chloro-4-Nitro-Phenyl)-2-Hydroxy-3-Isopropyl-6-Methyl-Benzamide], the EC50 [1] is reported as 6 µM, the Emax [2] is reported as 55% and the EC (Emax) [3] is reported as 10 µM.
Cc1c(Br)cc(C(C)C)c(O)c1C(=O)Nc1ccc([N+](=O)[O-])cc1Cl [Example 41, 3-Bromo-N-(2-Chloro-4-Nitro-Phenyl)-6-Hydroxy-5-Isopropyl-2-Methyl-Benzamide] showed an EC50 [1] of 4 µM, an Emax [2] of 103% and an EC (Emax) [3] of 30 µM.
With Cc1cc(C(=O)Nc2ccc([N+](=O)[O-])cc2Cl)c(O)c(C(C)(C)C)c1 [Example 45, 3-Tert-Butyl-N-(2-Chloro-4-Nitro-Phenyl)-2-Hydroxy-5-Methyl-Benzamide] the EC50 [1] was 0.6 µM, the Emax [2] was 96% and the EC (Emax) [3] was 3 µM.
For Cc1ccc(C(C)C)c(C(=O)Nc2ccc([N+](=O)[O-])cc2Cl)c1O [Example 46, N-(2-Chloro-4-Nitro-Phenyl)-2-Hydroxy-6-Isopropyl-3-Methyl-Benzamide], the EC50 [1] was 3 µM, the Emax [2] was 103% and the EC (Emax) [3] was 10 µM.
With Cc1c(Br)cc(C(C)C)c(O)c1C(=O)Nc1ccc([N+](=O)[O-])cc1C(F)(F)F [Example 57, 3-Bromo-6-Hydroxy-5-Isopropyl-2-Methyl-N-(4-Nitro-2-Trifluoromethyl-Phenyl)-Benzamide] the EC50 [1] was 0.31 µM, the Emax [2] was 90% and the EC (Emax) [3] was 10 µM.
In the case of O=C(Nc1cc(C(F)(F)F)cc(C(F)(F)F)c1)c1cc(F)cc(C(F)(F)F)c1 [Example 64, N-(3,5-Bis-Trifluoromethyl-Phenyl)-3-Fluoro-5-Trifluoromethyl-Benzamide], the EC50 [1] is reported as 2.6 µM, the Emax [2] is reported as 105% and the EC (Emax) [3] is reported as 10 µM.
Molecule O=C(Nc1ccc([N+](=O)[O-])c(C(F)(F)F)c1)c1cc(F)cc(C(F)(F)F)c1 [Example 65, 3-Fluoro-N-(4-Nitro-3-Trifluoromethyl-Phenyl)-5-Trifluoromethyl-Benzamide] has an EC50 [1] of 5.3 µM, an Emax [2] of 100% and an EC (Emax) [3] of 10 µM.
With O=C(Nc1cc(C(F)(F)F)cc(C(F)(F)F)c1)c1ccc(C(F)(F)F)c(F)c1 [Example 66, N-(3,5-Bis-Trifluoromethyl-Phenyl)-3-Fluoro-4-Trifluoromethyl-Benzamide] the EC50 [1] was 4.3 µM, the Emax [2] was 95% and the EC (Emax) [3] was 10 µM.
O=C(Nc1ccc([N+](=O)[O-])c(C(F)(F)F)c1)c1ccc(F)c(C(F)(F)F)c1 [Example 67, 4-Fluoro-N-(4-Nitro-3-Trifluoromethyl-Phenyl)-3-Trifluoromethyl-Benzamide] gave an EC50 [1] of 5.9 µM, an Emax [2] of 85% and an EC (Emax) [3] of 30 µM.
CC(C)(C)c1cc(/C=C(\C#N)c2ccncc2)cc(C(C)(C)C)c1O [Example 78, 3-(3,5-Di-Tert-Butyl-4-Hydroxy-Phenyl)-2-Pyridin-4-Yl-Acrylonitrile] showed an EC50 [1] of 2.9 µM, an Emax [2] of 80% and an EC (Emax) [3] of 10 µM.
For CC(C)(C)c1cc(/C=C(\C#N)c2cc(C(F)(F)F)cc(C(F)(F)F)c2)cc(C(C)(C)C)c1O [Example 79, 2-(3,5-Bis-Trifluoromethyl-Phenyl)-3-(3,5-Di-Tert-Butyl-4-Hydroxy-Phenyl)-Acrylonitrile], the EC50 [1] was 1 µM, the Emax [2] was 80% and the EC (Emax) [3] was 3 µM. The “HEP-G2 Tox” value (human, 3 h) was “Tox 0.3 mM”.
